tested on: SK-MEL-5 TRPM1-promoter luciferase reporter, 24 h; test: reducers of TRPM1 reporter luminescence, concentration series – cell-based, SK-MEL-5, cherry-picked, set 4, MITF inhibitor project, dose response (AID 493102);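 further: actives lower the luciferase signal so the potency reflects inhibition of reporter expression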

| Structure (SMILES) | AC50 |
| --- | --- |
| Cc1cc(C)nc(S/C=C/C(=O)c2ccccc2F)n1 | 5.38 µM |
| Cc1[nH]n(-c2ccccc2)c(=O)c1N=Nc1cccc(C(=O)O)c1 | 8.07 µM |
| CCOC(=O)Cn1c(=NC(=O)c2ccc([N+](=O)[O-])s2)sc2ccccc21 | 3.5 µM |
| CS(=O)(=O)c1nc(-c2ccc(F)cc2)cc(C(F)(F)F)n1 | 7.2 µM |
| O=C(Nc1ccccc1N1CCOCC1)c1ccc([N+](=O)[O-])o1 | 11.9 µM |
| CCOC(=O)/C=c1\s/c(=C\c2ccc3cc(OC)ccc3c2)c(=O)n1CC(=O)NCC1CCCO1 (stereo unspecified) | 5.73 µM |
| Cc1cc(C)cc(N2C(=O)NC(=O)/C(=C\C=C\c3ccco3)C2=O)c1 | 4.88 µM |
| CN(C)CCNc1ccc2nnn3c4ccc(O)cc4c(=O)c1c23 | 4.73 µM |
| Oc1c(CN2CCCC2)cc(COCc2ccccc2)c2cccnc12 | 6.15 µM |
| Cc1ccc(-c2cn(-c3ccc(SC(F)F)cc3)c3[n+]2CCC3)cc1 | 1.64 µM |
| COc1ccccc1CNCC(O)Cn1c2ccccc2c2ccccc21 (stereo unspecified) | 18.7 µM |
| COc1ccc(Br)cc1C(C[N+](=O)[O-])c1c(N)n(C)c(=O)n(C)c1=O (stereo unspecified) | 8.73 µM |
| Cc1ccc(NC(=O)/C=C/c2ccc([N+](=O)[O-])s2)c(C)c1 | 4.64 µM |
| O=C(Nc1ccc2nc3n(c(=O)c2c1)CCCC3)c1cc([N+](=O)[O-])ccc1F | 11.5 µM |
| CC(C)(C)C(=O)Cn1ncc(Br)c(Br)c1=O | 3.92 µM |
| O=[N+]([O-])c1cc(CN2CCN(c3ccccc3)CC2)c(O)c2ncccc12 | 8.3 µM |
| CC(C)CC(=O)NC(c1cccs1)c1ccc2cccnc2c1O (stereo unspecified) | 3.71 µM |
| COc1ccc(-n2ncc3c(N4CCCCC4)ncnc32)cc1 | 1.48 µM |
| COc1ccc(S(=O)(=O)N(C(C)=O)c2ccc(OC(C)=O)c3ccccc23)cc1[N+](=O)[O-] | 11.6 µM |

| Structure (SMILES) | AC50 |
| --- | --- |
| CCc1ccccc1NC(=O)CN(C)C(=O)Cn1ncc(Cl)c(Cl)c1=O | 11 µM |
| CC1=CC2/C=C(\C)CCC(O)C(O)/C=C/C(=O)C23C(=O)NC(CC(C)C)C3C1C (stereo unspecified) | 6.58 µM |
| Cc1ccccc1OCC(=O)N/N=C/c1ccc([N+](=O)[O-])o1 | 8.22 µM |
| N#CC(C#N)=C1C=CC=CN1/C(=C\c1ccco1)C(=O)c1ccc(Cl)cc1 | 6.85 µM |
| O=[N+]([O-])c1ccc(Sc2cc[n+]([O-])c3ccccc23)c([N+](=O)[O-])c1 | 5.92 µM |
| O=C(CCCN1C(=O)S/C(=C\c2ccccc2)C1=O)NNC(=O)c1ccccc1O | 33.9 µM |
| BrC(=C\c1ccccc1)/C=N/n1cnnc1 | 7.26 µM |
| Cc1ccc(-n2nnnc2CNC(=O)c2ccc([N+](=O)[O-])o2)cc1C | 9.72 µM |
| N#CC1=C(c2ccccc2)/C(=C/c2ccccc2)OC1=O | 4.25 µM |
| O=C(/C=C/c1ccc([N+](=O)[O-])s1)N1CCCCC1 | 4.16 µM |
| CC(=O)CSc1ccc(-c2nc3cc(C)c(C)cc3[nH]2)cn1 | 3.67 µM |
| CC(C)n1c(O)c(C2c3cc(Cl)ccc3Oc3[nH]c(=O)n(C(C)C)c(=O)c32)c(=O)[nH]c1=O (stereo unspecified) | 5.39 µM |
| COC(=O)[C@@H]1C[C@]2(OC(=O)c3ccccc3)C=CC(=O)C[C@@H]2N1C(=O)OCc1ccccc1 | 14 µM |
| COc1ccc(C(CCNC(C)c2ccccc2)c2ccc(F)cc2)cc1 (stereo unspecified) | 16.6 µM |
| O=C(c1nnsc1S(=O)(=O)c1ccc(Cl)cc1)N1CCOCC1 | 9.51 µM |
| O=C(Nc1ccccc1)NN(C(=O)CCl)c1ccccc1 | 8.5 µM |
| O=C(O)c1ccc(C(=O)Nc2ccc(F)cc2)cc1 | 19.8 µM |
| O=S(=O)(c1ccc(Cl)cc1)N1CCN(Cc2ccc(O)c3ncccc23)CC1 | 4.37 µM |
| Cc1cc(C)cc(OCC(=O)N/N=C/c2ccc([N+](=O)[O-])o2)c1 | 7.12 µM |

| Structure (SMILES) | AC50 |
| --- | --- |
| Cc1ccc(S(=O)(=O)/N=C2\C(=O)c3ccccc3C([O-])=C2n2cc[n+](CCC(C)C)c2)cc1 | 4.11 µM |
| COc1ccc(-c2nn(-c3ccccc3)cc2/C=N/N=C(N)N)cc1OC | 14.6 µM |
| O=c1nc(N/N=C/c2ccccn2)cn[nH]1 | 4.65 µM |
| O=C1NC(=O)N(Cc2ccc(F)cc2)C(=O)/C1=C\C=C\c1ccco1 | 6.63 µM |
| c1ccc(C[n+]2cccc3c4ccccc4ccc32)cc1 | 3.41 µM |
| O=C(O)c1cc(N/N=C/C(Cl)=C/c2ccccc2)ccc1Cl | 10.4 µM |
| CCOc1ccc(NC(=O)Nc2cccc(C(=O)O)c2)cc1 | 1.53 µM |
| OCCNc1c2ccccc2nc2c(F)c(F)c(F)c(F)c12 | 4.14 µM |
| COc1ccc(-n2cc(-c3ccc(C)cc3)[n+]3c2SCC3)cc1 | 2.91 µM |
| c1ccc(-c2cn3nc4c(nc3n2)CCCC4)cc1 | 5.89 µM |
| C=CCN1C(=O)NC(=O)/C(=C/C=C/c2ccccc2)C1=O | 5.94 µM |
| CCCCN(C)CC(O)Cn1cc(/C=C/C(=O)c2cccs2)c2ccccc21 (stereo unspecified) | 14.3 µM |
| N#Cc1c(NC(=O)CSc2ncn[nH]2)sc2c1CCCCC2 | 0.371 µM |
| Cc1cc(C)c2c(N)c3cccc(C)c3nc2n1 | 3.21 µM |
| COCCCn1[nH]c2c3c(ccc2c1=O)C(=O)c1ccccc1C3=O | 8.86 µM |
| CC(C)CC(=O)/C=C/n1c(=S)oc2ccccc21 | 10.5 µM |
| CCCC(=O)N1CCN(c2ccc(NC(=O)c3ccc([N+](=O)[O-])o3)cc2Cl)CC1 | 7.65 µM |
| Clc1cccc(-c2nc(-c3ccccn3)no2)c1 | 5.92 µM |

Reference: PubChem BioAssay AID493102 (Broad Institute, 2011)
